Paper PMC11040670, “Mechanistic and Kinetic Insights into Cellular Uptake of Biomimetic Dinitrosyl Iron Complexes and Intracellular Delivery of NO for Activation of Cytoprotective HO-1” (JACS Au, 2024)

Experiments:
HCEC = assay: Cytoprotection of HCEC against H2O2 oxidative stress; assay type: cell-based, human; settings: HCEC pretreated 24 h with 75 μM DNIC–COOH, then H2O2
Description: Cell viability study of MSC, N2a, and HCEC cells with or without the treatment of DNIC–COOH was performed using a Cell Counting Kit-8 (IMT Formosa New Materials Co., Ltd., Taiwan) according to the manufacturer’s protocol. Briefly, cells were seeded into a 96-well plate at a density of 4 × 10^3 cells/well for MSC, 1 × 10^4 cells/well for N2a, and 8 × 10^3 cells/well for HCEC, respectively, and incubated overnight. On the next day, cells were treated with DNIC–COOH at different concentrations and incubated for 24 h. The culture medium was then removed before the cells were washed with DPBS. After addition of fresh medium containing CCK-8 solution to the cells and incubation for 1–3 h, the absorbance at 450 nm was then measured on a microplate reader (SpectraMax iD3, Molecular Devices, San Jose, CA) with a reference wavelength of 650 nm. […]
To investigate the capacity of DNIC preconditioning to protect the MSC cells against elevated oxidative stress, cells were pretreated with 2.5 μM of DNIC–COOMe or 100 μM of DNIC–COOH for 8 h before being incubated with 250 μM H2O2 for another 24 h. Cell viability was evaluated by live/dead staining or CCK-8 assay. In a similar manner, DNIC-induced cytoprotective effect in HCECs was evaluated through pretreatment of 1 μM of DNIC–COOMe or 75 μM of DNIC–COOH for 24 h.

deoxyMb = tested on: deoxyMb; parameters: method as in PMID 37533298; settings: dinuclear DNIC, no Cys; cited from earlier work
metMb = target: T1, metMb (Equus caballus, UniProt P68082); parameters: method as in PMID 37533298; settings: dinuclear DNIC, no Cys; cited from earlier work
T1 construct: purchased Sigma
T1 sequence (P68082 2-154 limits assumed): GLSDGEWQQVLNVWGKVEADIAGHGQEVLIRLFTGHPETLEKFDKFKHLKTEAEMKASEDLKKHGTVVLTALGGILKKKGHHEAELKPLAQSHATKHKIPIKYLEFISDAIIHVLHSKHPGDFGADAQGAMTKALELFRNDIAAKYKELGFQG

HMOX1 gene = assay: Activation of HMOX1/HO-1, stated jointly for MSC/N2a/HCEC (incl. PTIO/ODQ); assay type: cell-based
Description: After treatment of (1) 100 μM of DNIC–COOH to MSC, (2) 100 μM of DNIC–COOH to N2a, (3) 75 μM of DNIC–COOH to HCEC, (4) 2.5 μM of DNIC–COOMe to MSC, (5) 10 μM of DNIC–COOMe to N2a, and (6) 1 μM of DNIC–COOMe to HCEC, respectively, the total RNA of the treated cells was extracted using TRIzol Reagent (Thermo Fisher Scientific) in order to assess the time-dependent change in the mRNA level of HO-1. After the synthesis of complementary DNA with the High-Capacity Reverse Transcription Kit, qPCR was conducted using Power SYBR Green PCR Master Mix with the StepOnePlus Real-Time PCR System (Thermo Fisher Scientific). The primer sequences were as follows: HMOX1 forward 5′-[…]-3′ and reverse 5′-[…]-3′; RPL13A forward 5′-[…]-3′ and reverse 5′- […]-3′; GAPDH forward 5′-[…]-3′ and reverse 5′-[…]-3′. The relative mRNA levels of target genes were determined by a comparative threshold cycle method and normalized to that of RPL13A (or GAPDH). The mRNA level of HO-1 in the MSC, N2a, and HCEC cells, respectively, that received the (1) sequential treatments of 1H-[1,2,4]oxadiazolo-[4,3-a]quinoxalin-1-one (ODQ, 10 μM for 1 h) and DNIC–COOH (100 μM in MSC for 3 h, 100 μM in N2a for 10 h, and 75 μM in HCEC for 6 h) or (2) cotreatment of 2-phenyl-4,4,5,5-tetramethylimidazoline-1-oxyl-3-oxide ([…]) and DNIC–COOH (100 μM in MSC for 3 h, 100 μM in N2a for 10 h, and 75 μM in HCEC for 6 h) was also evaluated under a similar procedure.

Q: With O=[N][Fe]1([N]=O)[SH](CCC(=O)O)[Fe]([N]=O)([N]=O)[SH]1CCC(=O)O (stereo not shown) [DNIC–COOH, [(NO)2Fe(μ-SCH2CH2COOH)2Fe(NO)2]] as the compound, how does the “survival under mimic oxidative stress condition” value (HCEC) read?
A: enhanced survival

Q: What about the “nitrosylation of the Fe2+-porphyrin center in deoxyMb” value (deoxyMb) of the same compound?
A: efficient nitrosylation

Q: What about the “reactivity toward the Fe3+-porphyrin center in metMb” value (metMb) of the same compound?
A: inert

Q: And the “activation of cytoprotective HO-1” value (HMOX1 gene; at t = 3–10 h (abstract))?
A: 50–150 fold change

Q: What about the “effect on transcriptional activation of HMOX1 gene by DNIC–COOH” value (“effect on transcriptional activation” for short) (HMOX1 gene; cotreatment of PTIO to MSC/HCEC) of the same compound?
A: no significant perturbation

Q: And the “effect on transcriptional activation” value (HMOX1 gene; higher concentration of PTIO (100 μM) to N2a)?
A: reduced transcriptional activation

Q: And the “effect on transcriptional activation” value (HMOX1 gene; pretreatment of ODQ to MSC/N2a/HCEC)?
A: no significant perturbation
